# Data taken from publication PMC11053983, “Beyond One-Size-Fits-All: Tailoring Teicoplanin Regimens for Normal Renal Function Patients Using Population Pharmacokinetics and Monte Carlo Simulation” (Pharmaceutics, 2024).
# Experiments:
# [1] = Single 200 mg IV infusion (30 min) PK in 12 healthy adults, noncompartmental analysis; type: in vivo, human; settings: n = 12; for Cmax: plasma, HPLC-MS/MS
# Procedure: (§1) A 200 mg dose of teicoplanin in 100 mL of normal saline was administered intravenously to subjects over 30 min. Venous blood samples (6 mL each) were collected into heparinized tubes at 33, 36, 45, and 90 min, and 4, 8, 48–120, and 168–240 h after starting the infusion. Eight sampling points were used per subject to analyze PK parameters via noncompartmental and population PK methods.
# (§2) Plasma levels of teicoplanin were quantified using tandem mass spectrometry coupled with HPLC (HPLC-MS/MS). The analytical system utilized included an LC-40 HPLC unit from Shimadzu Co. (Kyoto, Japan) paired with a Gemini C18 analytical column from Phenomenex (Torrance, CA, USA). A SCIEX 4500 QTRAP mass spectrometer (Sciex, Redwood City, CA, USA) facilitated the MS-based detection. Calibration standards were prepared by combining 100 μL of a reference solution with 10 μL of a vancomycin internal standard (concentration of 100 μg/mL) in microcentrifuge tubes. To this mixture, 400 μL of acetonitrile was added to precipitate proteins, followed by vortex mixing for 60 s. Following centrifugation at 12,000 rpm for 2 min at 4 °C, the clear supernatant was diluted 10-fold with deionized water. A 10 μL sample of this solution was then introduced into the HPLC-MS/MS for analysis. In a parallel procedure for plasma samples, after the addition of the vancomycin internal standard and acetonitrile-induced protein precipitation, the sample was processed like that of the calibration standard preparation before HPLC-MS/MS analysis. The teicoplanin concentration in the plasma was determined by comparing the peak area ratio of teicoplanin to the internal standard and employed a batch-specific calibration curve equation, adjusted for 1/x^2 weighting.
# A noncompartmental analysis (NCA) was completed to evaluate the plasma concentration–time profiles of teicoplanin using the R programming language and the NonCompart package. The following PK parameters were assessed: maximum observed plasma concentration (Cmax), time of last measurable concentration (Tlast), concentration corresponding to Tlast (Clast), area under the plasma concentration–time curve (AUC) from the start of dosing to the last quantifiable concentration (AUClast), AUC from the start of dosing to infinity (AUCinf), area under the first moment curve (AUMC) from 0 h to the Tlast (AUMClast), AUMC extrapolated to infinity, based on the last observed concentration (AUMCinf), mean residence time from 0 h to infinite (MRTinf), total body clearance as determined through NCA (CLNCA), volume of distribution (Vd) determined via NCA (VzNCA), steady-state Vd determined via NCA (VssNCA), and terminal elimination half-life (t1/2λz). Cmax, Tlast, and Clast were determined directly from the observed data. AUClast and AUMClast were calculated employing the linear-up and log-down trapezoidal method. AUCinf was estimated by adding Clast/λz to AUClast, where λz is the terminal elimination rate constant, which was determined by log-linear regression of the terminal phase plasma concentrations. AUMCinf was calculated using the following formula: AUMClast + (Tlast × Clast)/λz + Clast/λz^2, MRTinf as AUMCinf/AUCinf—infusion time/2, CLNCA as dose/AUCinf, VzNCA as CLNCA/λz, VssNCA as MRTinf × CLNCA, and t1/2λz as ln(2)/λz.
# [2] = Population PK analysis (NONMEM, three-compartment model), 12 healthy adults, 200 mg IV; type: in vivo; settings: for CL, total clearance / AUC (dose/CL) / VC, central volume of distribution / Vss, steady-state volume of distribution: individual parameters; for CL, total clearance: n = 12; for 1st t1/2 / 2nd t1/2 / 3rd t1/2: three-compartment model
# Procedure: as §1, §2
# The PK analysis of teicoplanin was completed using a nonlinear mixed-effects modeling technique with NONMEM software (version 7.5, ICON Clinical Research LLC, North Wales, PA, USA). Parameter estimation for both the observed and the unaccounted-for random effects was achieved by applying the First-Order Conditional Estimation with Interaction approach. This method facilitates the consideration of interactions between the unexplained interindividual variability (IIV) of PK parameters and the residual unexplained variability in the observed concentrations. To model the PK profiles of teicoplanin, we used one-compartment (ADVAN1 TRANS2), two-compartment (ADVAN3 TRANS4), and three-compartment (ADVAN11 TRANS4) models which were based on first-order kinetics, with the exception of zero-order infusion processes.
# Model selection and evaluation were based on several criteria: NONMEM’s objective function values (OFVs), parameter estimate precision (reflected by relative standard errors), IIV shrinkage, diagnostic fit plots, visual predictive checks, and bootstrap analysis. For nested model comparisons, a decrease in OFV (ΔOFV) exceeding 3.84 (for a χ^2 distribution with one degree of freedom, df) or 5.99 (for a χ^2 distribution with two df) indicated meaningful improvements at a significance level of p < 0.05. The diagnostic plots for model assessment include conditional weighted residuals (CWRES) against time and population predictions (PRED), as well as actual observations compared with both PRED and individual predictions. Visual predictive checks (VPC) were conducted by matching the observed concentrations to the 80% prediction intervals from 1000 simulations based on the final PK model. The variability in the final predictions was determined by calculating the median and 95% confidence intervals for the PK parameters from 2000 bootstrap samples.
# Significant covariates affecting PK parameters were determined using stepwise selection, with inclusion at p < 0.01 (ΔOFV < −6.635) and exclusion at p < 0.001 (ΔOFV > 10.83) for one df. Covariates had to show statistical and clinical relevance. […]
# [3] = human, in vivo; cited from earlier work
# Source text: Teicoplanin, along with the glycopeptide antibiotic vancomycin, has an important role in the treatment of Gram-positive bacterial infections, including those caused by methicillin-resistant Staphylococcus aureus (MRSA). […] Based on the European Medicines Agency’s summary of the product characteristics (SmPC) for teicoplanin, adults and the elderly with normal renal function have recommended specific do ...
# [4] = cited from earlier work
# Source text: In the present study, the PK profile of teicoplanin in healthy adults was characterized using a three-compartment model. Typically, in studies with sparse sampling designs, the PK profile of teicoplanin is often delineated using one- [15, 16] or two-compartment models; however, previous studies using dense sampling approaches have also applied a three-compartment model. Such models are characterized by three distinct slopes when plotted on a graph with the y-axis representing a logarithmic scale, corresponding to the composition of three exponential equations ...
# [5] = 12 mg/kg every 12 h x4, then 12 mg/kg daily; median CLCR 113 mL/min; cited from earlier work
# [6] = human, in vivo; cited from earlier work; remark: listed apart in the source
# Procedure: In the second simulation, the PTA was determined for different LD and MD regimens to satisfy both criteria: a Ctrough greater than 20 mg/L and an AUC/MIC ratio of at least 800. Adopting a similar approach to the first simulation, we used two distinct LD and MD combinations. The proportion of patients achieving both therapeutic targets was continuously assessed from days 3 to 7 following the initiation of treatment.
# [7] = in vivo; cited from earlier work
# Source text: This study had several limitations. First, a small sample size of 12 subjects was insufficient to detect a variety of meaningful covariates, although eGFR and body weight were identified as significant factors. Thus, future studies with larger patient cohorts will be needed to develop more robust models. […] This decision, aimed at enhancing model stability and interpretability, involved employing the FOCE-I method and facing challenges with other estimation methods due to our ...
substance,measurement,setting,value
teicoplanin,"t1/2λz, terminal elimination half-life","[1]; last 3 or 4 points, mean (CV%)",54.6 (13.2%) h
same,AUCinf,[1]; mean (CV%),307 (15.4%) mg/L·h
same,AUClast,[1]; mean (CV%),273 (16.6%) mg/L·h
same,AUMCinf,[1]; mean (CV%),"22,700 (14.8%) mg/L·h^2"
same,AUMClast,[1]; mean (CV%),"13,800 (16.0%) mg/L·h^2"
same,CLNCA,[1]; mean (CV%),0.0105 (15.2%) L/h/kg
same,Clast,[1]; mean (CV%),0.431 (24.9%) mg/L
same,MRTinf,[1]; mean (CV%),74.0 (12.8%) h
same,VssNCA,[1]; mean (CV%),0.776 (19.6%) L/kg
same,AUCinf,[1]; median (IQR),305 (279–332) mg/L·h
same,AUClast,[1]; median (IQR),270 (247–302) mg/L·h
same,AUMCinf,[1]; median (IQR),"22,300 (20,200–23,200) mg/L·h^2"
same,AUMClast,[1]; median (IQR),"13,800 (12,300–15,000) mg/L·h^2"
same,CLNCA,[1]; median (IQR),0.0103 (0.00896–0.0117) L/h/kg
same,Clast,[1]; median (IQR),0.422 (0.348–0.470) mg/L
same,MRTinf,[1]; median (IQR),76.7 (68.0–80.7) h
same,Tlast,[1]; median (IQR),192 (169–194) h
same,VssNCA,[1]; median (IQR),0.734 (0.661–0.859) L/kg
same,"t1/2λz, terminal elimination half-life",[1]; median (IQR),55.0 (51.9–58.6) h
same,Cmax,[1]; mean (CV%),32.1 (12.9%) mg/L
same,Cmax,[1]; median (IQR),30.9 (29.5–35.6) mg/L
same,"Q2, bootstrap median (95% CI)",[2]; 2000 bootstrap samples,4.45 (3.63–5.86) L/h
same,"Q3, bootstrap median (95% CI)",[2]; 2000 bootstrap samples,1.75 (1.44–2.13) L/h
same,"V1, bootstrap median (95% CI)",[2]; 2000 bootstrap samples,3.97 (3.15–4.62) L
same,"V2, bootstrap median (95% CI)",[2]; 2000 bootstrap samples,8.33 (7.07–9.85) L
same,"θ1 (CL), bootstrap median (95% CI)",[2]; 2000 bootstrap samples,0.693 (0.653–0.74) L/h
same,"θ2, bootstrap median (95% CI)",[2]; 2000 bootstrap samples,0.789 (0.422–1.16)
same,"θ7 (V3), bootstrap median (95% CI)",[2]; 2000 bootstrap samples,69.7 (55.8–82.6) L
same,"θ8, bootstrap median (95% CI)",[2]; 2000 bootstrap samples,1.73 (0.67–2.44)
same,"CL typical value θ1, CL = θ1 × (CE/105.27)^θ2, estimate",[2]; final model estimate,0.693 L/h
same,"Q2 = θ4, intercompartmental clearance V1-V2, estimate",[2]; final model estimate,4.45 L/h
same,"Q3 = θ6, intercompartmental clearance V1-V3, estimate",[2]; final model estimate,1.76 L/h
same,"V1 = θ3, central volume of distribution, estimate",[2]; final model estimate,3.96 L
same,"V2 = θ5, first peripheral volume, estimate",[2]; final model estimate,8.24 L
same,"θ7, V3 = θ7 × (WT/67.85)^θ8, second peripheral volume, estimate",[2]; final model estimate,69.8 L
same,"θ8, exponent of weight on V3, estimate",[2]; final model estimate,1.73
same,VSS typical value (V1 + V2 + V3),[2]; healthy subjects,82.0 L
same,"CL, total clearance",[2]; mean (CV%),0.0107 (14.0%) L/h/kg
same,"CL, total clearance",[2]; median (IQR),0.0104 (0.00961–0.0122) L/h/kg
same,AUC (dose/CL),[2]; mean (CV%),299 (16.0%) mg/L·h
same,"VC, central volume of distribution",[2]; mean (CV%),0.0644 (28.9%) L/kg
same,"Vss, steady-state volume of distribution",[2]; mean (CV%),1.21 (23.0%) L/kg
same,AUC (dose/CL),[2]; median (IQR),300 (263–316) mg/L·h
same,"VC, central volume of distribution",[2]; median (IQR),0.0649 (0.0526–0.0733) L/kg
same,"Vss, steady-state volume of distribution",[2]; median (IQR),1.24 (1.06–1.34) L/kg
same,1st t1/2,[2]; mean (CV%),0.345 (36.3%) h
same,2nd t1/2,[2]; mean (CV%),4.12 (22.2%) h
same,3rd t1/2,[2]; mean (CV%),103 (29.9%) h
same,1st t1/2,[2]; median (IQR),0.317 (0.289–0.417) h
same,2nd t1/2,[2]; median (IQR),4.23 (3.78–4.83) h
same,3rd t1/2,[2]; median (IQR),97.9 (83.1–116) h
same,elimination half-life,[3],83 to 182 h
same,V1,[4],4.32 L
same,V2,[4],8.35 L
same,V3,[4],68.6 L
same,VSS,[4],81.3 L
same,CL,"[4]; mean 64 years, 69.1 kg, CLCR 72 mL/min",0.490 L/h
same,"steady-state Ctrough, median (range)",[5],15.9 (8.8–29.9) mg/L
same,patients achieving AUC ≥800 mg/L·h,[6],100%
same,linear PK range,[7],2 to 25 mg/kg
